Assay results: patent publication US4879385A, “Substituted hydroxyalkyl-azoles and their use as antimycotics” (Bayer Aktiengesellschaft, priority 1982, dated 1989)

Columns and labels:
[1] = tested on: dermatophytes, moulds and yeasts; assay: Antimycotic in vitro activity, series dilution test (overall comparison); format: cell-based; conditions: 20° C., 24 to 96 hours
Experimental: The in vitro tests were carried out in series dilution test with germ inocula of an average of 5×10^4 germs/ml of substrate. The nutrient medium was (a) for dermatophytes and moulds: Sabourand's milieu d'epreuve and (b) for yeasts: meat extract/glucose broth. The incubation temperature was 20° C. and the duration of incubation was 24 to 96 hours in the case of yeasts, and 96 hours in the case of dermatophytes and moulds.

[2] = tested on: Candida; assay: Antimycotic in vivo activity (oral) in candidosis of mice; conditions: mice SPF-CF, i.v. Candida; oral 25-100 mg/kg 1 h before and 7 h after infection
Experimental: Mice of the SPF-CF type were infected intravenously with 1-2×10^6logarithmically growing Candida cells, which were suspended in physiological sodium chloride solution. The animals were treated orally one hour before and seven hours after the infection, with, in each case, 25-100 mg/kg of body weight of the formulations.
Untreated animals died 3 to 6 days after infection. The survival rate on the 6th day after infection was about 5% in the case of untreated control animals.

[3] = tested on: fungi (antimycotic); conditions: prior art DE-OS 2,623,129 and DE-OS 2,851,086; cited from earlier work

Structure (SMILES)	antimycotic action in vitro compared with compounds (A), (B) and (C) [1]	action in vivo compared with compounds (A), (B) and (C) [2]	antimycotic properties [3]
CC(C)(Sc1ccc(Cl)cc1)C(O)(Cn1ccnc1)c1ccc(Cl)cc1 (stereo not drawn) [Example 16]	better antimycotic action than the compounds (A), (B) and (C)	–	–
CCC(C)(Oc1ccc(F)cc1)C(O)(Cn1cncn1)c1ccc(F)cc1 (stereo not drawn) [Example 34]	–	better action than the compounds (A), (B) and (C)	–
CC(C)(Sc1ccc(Cl)cc1)C(O)(Cn1cncn1)c1ccc(Cl)cc1 (stereo not drawn) [Example 14]	better antimycotic action than the compounds (A), (B) and (C)	–	–
CC(C)(Cc1ccc(F)cc1)C(O)(Cn1ccnc1)c1ccc(F)cc1 (stereo not drawn) [Example 33]	–	better action than the compounds (A), (B) and (C)	–
Cc1cc(Cl)ccc1OC(C)(C)C(O)(Cn1cncn1)c1ccc(Cl)cc1 (stereo not drawn) [Example 21]	better antimycotic action than the compounds (A), (B) and (C)	–	–
CC(C)(Cc1ccc(Cl)cc1)C(O)(Cn1ccnc1)c1ccc(F)cc1 (stereo not drawn) [Example 8]	better antimycotic action than the compounds (A), (B) and (C)	better action than the compounds (A), (B) and (C)	–
CC(C)(Oc1ccc(Cl)cc1)C(O)(Cn1cncn1)c1ccc(Cl)cc1.Cl (stereo not drawn) [Example 2, 3-(4-chlorophenoxy)-2-(4-chlorophenyl)-3-methyl-1-(1,2,4-triazol-1-yl)-butan-2-ol hydrochloride]	better antimycotic action than the compounds (A), (B) and (C)	–	–
CC(C)(Cc1ccc(Cl)cc1)C(O)(Cn1cncn1)c1ccc(Cl)cc1 (stereo not drawn) [Example 4]	better antimycotic action than the compounds (A), (B) and (C)	better action than the compounds (A), (B) and (C)	–
CC(C)(Cc1ccc(F)cc1)C(O)(Cn1cncn1)c1ccc(F)cc1 (stereo not drawn) [Example 28]	better antimycotic action than the compounds (A), (B) and (C)	better action than the compounds (A), (B) and (C)	–
CC(C)(Cc1ccc(Cl)cc1)C(O)(Cn1ccnc1)c1ccc(Cl)cc1 (stereo not drawn) [Example 1, 2,4-bis(4-chlorophenyl)-3,3-dimethyl-1-(imidazol-1-yl)-butan-2-ol]	better antimycotic action than the compounds (A), (B) and (C)	better action than the compounds (A), (B) and (C)	–
CC(C)(Oc1ccc(Cl)cc1)C(O)(Cn1ccnc1)c1ccc(F)cc1 (stereo not drawn) [Example 31]	–	better action than the compounds (A), (B) and (C)	–
CC(C)(c1ccc(Cl)cc1)C(O)(Cn1ccnc1)c1ccc(Cl)cc1 (stereo not drawn) [Example 3]	better antimycotic action than the compounds (A), (B) and (C)	–	–
CCC(C)(Oc1ccc(Cl)cc1)C(O)(Cn1cncn1)c1ccc(F)cc1 (stereo not drawn) [Example 35]	better antimycotic action than the compounds (A), (B) and (C)	better action than the compounds (A), (B) and (C)	–
CC(C)(Oc1ccccc1)C(O)(Cn1cncn1)c1ccc(Cl)cc1 (stereo not drawn) [Example 22]	better antimycotic action than the compounds (A), (B) and (C)	–	–
CC(C)(Oc1ccc(Cl)cc1Cl)C(O)(Cn1cncn1)c1ccc(Cl)cc1 (stereo not drawn) [Example 18]	better antimycotic action than the compounds (A), (B) and (C)	better action than the compounds (A), (B) and (C)	–
CC(C)(Oc1ccc(Cl)cc1)C(O)(Cn1cncn1)c1ccc(F)cc1 (stereo not drawn) [Example 29]	better antimycotic action than the compounds (A), (B) and (C)	better action than the compounds (A), (B) and (C)	–
OC(Cc1ccc(Cl)cc1)(Cn1ccnc1)c1ccc(Cl)cc1 (stereo not drawn) [(A), 1,2-bis(4-chlorophenyl)-2-hydroxy-3-(imidazol-1-yl)-propane]	–	–	good antimycotic properties
CC(C)(Cc1ccccc1)C(O)(Cn1cncn1)c1ccc(F)cc1 (stereo not drawn) [Example 6]	better antimycotic action than the compounds (A), (B) and (C)	–	–

Structure (SMILES)	antimycotic action in vitro compared with compounds (A), (B) and (C) [1]	action in vivo compared with compounds (A), (B) and (C) [2]	antimycotic properties [3]
CC(C)(Oc1ccccc1Cl)C(O)(Cn1cncn1)c1ccc(Cl)cc1 (stereo not drawn) [Example 19]	better antimycotic action than the compounds (A), (B) and (C)	–	–
OC(Cn1ccnc1)(c1cccc(Cl)c1)c1cccc(Cl)c1 [(B), 1,1-bis(3-chlorophenyl)-1-hydroxy-2-(imidazol-1-yl)-ethane]	–	–	good antimycotic properties
CCC(C)(COc1ccc(Cl)cc1)C(O)(Cn1cncn1)c1ccc(Cl)cc1 (stereo not drawn) [Example 26]	better antimycotic action than the compounds (A), (B) and (C)	better action than the compounds (A), (B) and (C)	–
Cc1ccc(C(C)(C)C(O)(Cn2ccnc2)c2ccc(Cl)cc2)cc1 (stereo not drawn) [Example 25]	better antimycotic action than the compounds (A), (B) and (C)	–	–
CC(C)(Cc1ccc(F)cc1)C(O)(Cn1ccnc1)c1ccc(Cl)cc1 (stereo not drawn) [Example 10]	better antimycotic action than the compounds (A), (B) and (C)	–	–
OC(Cc1ccccc1)(Cn1cncn1)c1ccc(-c2ccccc2)cc1 (stereo not drawn) [(C), 2-(4-biphenyl)-2 hydroxy-1-phenyl-3-(1,2,4-triazol-1-yl)-propane]	–	–	good antimycotic properties
CC(C)(c1ccc(Cl)cc1)C(O)(Cn1cncn1)c1ccc(Cl)cc1 (stereo not drawn) [Example 5]	better antimycotic action than the compounds (A), (B) and (C)	–	–
CC(C)(Cc1ccc(F)cc1)C(O)(Cn1cncn1)c1ccccc1 (stereo not drawn) [Example 15]	better antimycotic action than the compounds (A), (B) and (C)	–	–
CC(C)(Oc1ccc(F)cc1)C(O)(Cn1ccnc1)c1ccc(F)cc1 (stereo not drawn) [Example 32]	–	better action than the compounds (A), (B) and (C)	–
CCC(C)(Oc1ccc(Cl)cc1)C(O)(Cn1cncn1)c1ccc(Cl)cc1 (stereo not drawn) [Example 27]	–	better action than the compounds (A), (B) and (C)	–
CC(C)(Oc1ccccc1Cl)C(O)(Cn1ccnc1)c1ccc(Cl)cc1 (stereo not drawn) [Example 20]	better antimycotic action than the compounds (A), (B) and (C)	–	–
CC(C)(Oc1ccc(F)cc1)C(O)(Cn1cncn1)c1ccc(F)cc1 (stereo not drawn) [Example 30]	–	better action than the compounds (A), (B) and (C)	–
CC(C)(Cc1ccc(Cl)cc1Cl)C(O)(Cn1ccnc1)c1ccc(F)cc1 (stereo not drawn) [Example 12]	better antimycotic action than the compounds (A), (B) and (C)	–	–
CC(C)(Cc1ccc(F)cc1)C(O)(Cn1cncn1)c1ccc(Cl)cc1 (stereo not drawn) [Example 11]	better antimycotic action than the compounds (A), (B) and (C)	better action than the compounds (A), (B) and (C)	–
CC(C)(Oc1ccc(Cl)cc1Cl)C(O)(Cn1ccnc1)c1ccc(Cl)cc1 (stereo not drawn) [Example 17]	–	better action than the compounds (A), (B) and (C)	–
CC(C)(Cc1ccc(Cl)cc1)C(O)(Cn1cncn1)c1ccc(F)cc1 (stereo not drawn) [Example 9]	better antimycotic action than the compounds (A), (B) and (C)	better action than the compounds (A), (B) and (C)	–
CC(C)(Oc1ccccc1)C(O)(Cn1ccnc1)c1ccc(Cl)cc1 (stereo not drawn) [Example 23]	better antimycotic action than the compounds (A), (B) and (C)	–	–
